In ChEMBL document CHEMBL5143734, “Seco-Lupane Triterpene Derivatives Induce Ferroptosis through GPX4/ACSL4 Axis and Target Cyclin D1 to Block the Cell Cycle” (J Med Chem, 2022):
Calls of active or inactive are those of the source. The rule behind the calls is not given here.

Experiments:
HepG2 [1] = assay: Induction of ferroptosis in human HepG2 cells assessed as log2 fold decrease in GPX4 mRNA expression by qRT-PCR analysis; type: functional
HepG2 [2] = assay: Cytotoxicity against human HepG2 cells assessed as reduction in cell viability by CCK-8 assay; type: functional, cell-based
HepG2 [3] = assay: Induction of ferroptosis in human HepG2 cells assessed as log2 fold increase in ACSL4 mRNA expression by qRT-PCR analysis; type: functional
HepG2 [4] = assay: Induction of cell death in human HepG2 cells measured after 48 hrs by Annexin V-FITC/PI double staining based flow cytometry analysis; type: functional; conditions: dose 0.5-2 µM, DDE = dose-dependent effect
HepG2 [5] = assay: Induction of ferroptosis in human HepG2 cells assessed as upregulation of ACSL4 mRNA expression at 0.25 to 1 uM by qRT-PCR analysis; type: functional, cell-based; conditions: dose 0.25-1 µM, time 24-48 hrs, TDE = time-dependent effect
HepG2 [6] = assay: Antimigratory activity against human HepG2 cells assessed as reduction in cell migration measured after 24 hrs by crystal violet staining based transwell assay; type: functional; conditions: dose 0.125-0.5 µM, DDE = dose-dependent effect
[7] = molecular target: G1/S-specific cyclin-D1 (Homo sapiens) (UniProt P24385); assay: Binding affinity to Cyclin D1 in human HepG2 cells by laser confocal microscopy; type: cell-based
HepG2 [8] = assay: Downregulation of Cyclin A2 mRNA expression in human HepG2 cells at 0.5 to 2.0 uM by RT-qPCR analysis; type: functional, cell-based; conditions: dose 0.5-2 µM, time 6-36 hrs, TDE = time-dependent effect
HepG2 [9] = assay: Antiproliferative activity against human HepG2 cells at 0.125 to 2 uM by Edu staining based fluorescence microscopy assay; type: functional, cell-based; conditions: dose 0.125-2 µM, time 24-48 hrs, TDE = time-dependent effect
HepG2 [10] = assay: Cytotoxicity against human HepG2 cells assessed as reduction in cell viability at 5 to 100 uM relative to control; type: functional; conditions: dose 5-100 µM
HepG2 [11] = assay: Induction of ferroptosis in human HepG2 cells assessed as increase in intracellular ROS level incubated for 48 hrs by DCFH-DA staining based fluorescence microscopic analysis; type: functional, cell-based; conditions: dose 0.25-1 µM, DDE = dose-dependent effect
HepG2 [12] = assay: Induction of ferroptosis in human HepG2 cells assessed as increased in Fe2+ level incubated for 36 hrs; type: functional, cell-based; conditions: dose 0.5-2 µM, DDE = dose-dependent effect
HepG2 [13] = assay: Antiproliferative activity against human HepG2 cells assessed as inhibition of clone formation pretreated for 48 hrs followed by replacement with drug free medium every 3 days for 10 days by crystalline violet staining based assay; type: functional, cell-based; conditions: dose 0.5-2 µM, DDE = dose-dependent effect
A549 = assay: Cytotoxicity against human A549 cells assessed as reduction in cell viability by CCK-8 assay; type: functional, cell-based
HepG2 [14] = assay: Induction of ferroptosis in human HepG2 cells assessed as decrease in GPX4 mRNA expression measured after 36 hrs by qRT-PCR analysis; type: functional, cell-based; conditions: dose […], DDE = dose-dependent effect
HepG2 [15] = assay: Induction of cell cycle arrest in human HepG2 cells assessed as decrease in cells at S phase at 0.5 to 2 uM; type: functional, cell-based; conditions: dose 0.5-2 µM
[16] = Upregulation of Cyclin E1 mRNA expression in human HepG2 cells assessed as fragments per kilo base of exon per million mapped fragments […] (reference value: 11.43 to 14.86); type: functional
HepG2 [17] = assay: Downregulation of Cyclin D1 protein expression in human HepG2 cells measured at 2 uM by Western blot analysis; type: functional, cell-based; conditions: time 6-36 hrs, TDE = time-dependent effect
HepG2 [18] = assay: Cytotoxicity against human HepG2 cells assessed as reduction in cell viability at 10 uM relative to control; type: functional
HepG2 [19] = assay: Downregulation of Cyclin B1 mRNA expression in human HepG2 cells assessed as fragments per kilo base of exon per million mapped fragments by RT-qPCR analysis (reference value: 54.40 to 58.62); type: functional
HepG2 [20] = assay: Inhibition of Cyclin D1 in human HepG2 cells assessed as reduction in Rb phosphorylation by Western blot analysis; type: cell-based; conditions: dose 0.5-2 µM, DDE = dose-dependent effect
HepG2 [21] = assay: Induction of ferroptosis in human HepG2 cells assessed as decreased in GSH level incubated for 36 hrs; type: functional, cell-based; conditions: dose 0.5-2 µM, DDE = dose-dependent effect
HepG2 [22] = assay: Induction of ferroptosis in human HepG2 cells assessed as decrease in GPX4 protein expression at 2 uM by Western blot analysis; type: functional, cell-based; conditions: time 6-36 hrs, TDE = time-dependent effect
HepG2 [23] = assay: Downregulation of Cyclin D1 mRNA expression in human HepG2 cells assessed as fragments per kilo base of exon per million mapped fragments by RT-qPCR analysis (reference value: 59.65 to 61.74); type: functional
HepG2 [24] = assay: Induction of cell cycle arrest in human HepG2 cells assessed as decrease in cells at G2 phase at 0.5 to 2 uM; type: functional, cell-based; conditions: dose 0.5-2 µM
HepG2 [25] = assay: Downregulation of Cyclin A2 mRNA expression in human HepG2 cells assessed as fragments per kilo base of exon per million mapped fragments by RT-qPCR analysis (reference value: 37.48 to 47.03); type: functional
HepG2 [26] = assay: Inhibition of Cyclin D1 in human HepG2 cells assessed as reduction in CDK6 expression by Western blot analysis; type: cell-based; conditions: dose 0.5-2 µM, DDE = dose-dependent effect
HepG2 [27] = assay: Induction of ferroptosis in human HepG2 cells assessed as downregulation of GPX4 mRNA expression by measuring fragments per kilo base of exon per million mapped fragments by qRT-PCR analysis (reference value: 298.18 to 302.30); type: functional
HepG2 [28] = assay: Induction of ferroptosis in human HepG2 cells assessed as increase in intracellular ROS level incubated for 48 hrs by DCFH-DA staining based flow cytometry analysis; type: functional, cell-based; conditions: dose 0.25-1 µM, DDE = dose-dependent effect
[29] = Inhibition of Cyclin D1 in human HepG2 cells assessed as reduction in CDK4 expression by Western blot analysis; conditions: dose 0.5-2 µM, DDE = dose-dependent effect
HepG2 [30] = assay: Antiproliferative activity against human HepG2 cells at 0.125 to 0.5 uM incubated for 48 hrs; type: functional, cell-based; conditions: dose 0.125-0.5 µM
HepG2 [31] = assay: Downregulation of Cyclin E1 mRNA expression in human HepG2 cells at 0.5 to 2.0 uM by RT-qPCR analysis; type: functional, cell-based; conditions: dose 0.5-2 µM, time 6-36 hrs, TDE = time-dependent effect
PANC-1 = assay: Cytotoxicity against human PANC-1 cells assessed as reduction in cell viability by CCK-8 assay; type: functional, cell-based
PC-3M = assay: Cytotoxicity against human PC-3M cells assessed as reduction in cell viability by CCK-8 assay; type: functional, cell-based
HepG2 [32] = assay: Cytotoxicity against human HepG2 cells assessed as reduction in cell viability at 50 uM incubated for 48 hrs by CCK-8 assay; type: functional, cell-based
HepG2 [33] = assay: Induction of ferroptosis in human HepG2 cells assessed as increase in intracellular ROS level at 2 uM incubated for 48 hrs by DCFH-DA staining based flow cytometry analysis; type: functional
HepG2 [34] = assay: Induction of ferroptosis in human HepG2 cells assessed as upregulation of ACSL4 mRNA expression by measuring fragments per kilo base of exon per million mapped fragments […] (reference value: 75.85 to 97.44); type: functional
HepG2 [35] = assay: Induction of ferroptosis in human HepG2 cells assessed as decrease in GPX4 protein expression at 2 uM measured after 6 hrs by Western blot analysis; type: functional, cell-based

Sequence of G1/S-specific cyclin-D1 (Homo sapiens) (P24385 whole entry): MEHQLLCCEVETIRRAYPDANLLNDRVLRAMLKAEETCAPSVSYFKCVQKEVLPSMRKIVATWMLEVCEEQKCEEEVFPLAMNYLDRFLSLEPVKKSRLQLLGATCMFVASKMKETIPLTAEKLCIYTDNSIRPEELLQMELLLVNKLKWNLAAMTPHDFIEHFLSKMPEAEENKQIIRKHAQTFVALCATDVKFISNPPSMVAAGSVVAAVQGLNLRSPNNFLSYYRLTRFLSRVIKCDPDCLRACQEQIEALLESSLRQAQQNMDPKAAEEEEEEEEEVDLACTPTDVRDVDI

Activity [7]: Active | inhibition [29]: Dde
Compound: C=C(C)[C@@H]1CC[C@]2(C(=O)OCCCCCn3cc(CCN)c4ccccc43)CC[C@]3(C)[C@H](C[C@H]4OC(=O)C[C@@H](O)[C@]5(C)[C@@H]4[C@@]3(C)CC[C@H]5C(=C)C)[C@@H]12
log2FC (HepG2 [1]): -0.29 | IC50 (HepG2 [2]): 0.97 µM | log2FC (HepG2 [3]): 0.83 | Activity (HepG2 [4]): Dde | Activity (HepG2 [5]): Tde | Activity (HepG2 [6]): Dde | Activity (HepG2 [8]): Tde | Activity (HepG2 [9]): Tde | Activity (HepG2 [10]): 10.55% | Activity (HepG2 [11]): Dde | Activity (HepG2 [12]): Dde | Activity (HepG2 [13]): Dde | IC50 (A549): 5.44 µM | Activity (HepG2 [14]): Dde | Activity (HepG2 [15]): Active | Activity [16]: 14.11 | Activity (HepG2 [17]): Tde | Activity (HepG2 [18]): 20.15% | Activity (HepG2 [19]): 39.59 | inhibition (HepG2 [20]): Dde | Activity (HepG2 [21]): Dde | Activity (HepG2 [22]): Tde | Activity (HepG2 [23]): 53.4 | Activity (HepG2 [24]): Active | Activity (HepG2 [25]): 30.38 | inhibition (HepG2 [26]): Dde | Activity (HepG2 [27]): 221.77 | Activity (HepG2 [28]): Dde | Activity (HepG2 [30]): Active | Activity (HepG2 [31]): Tde | IC50 (PANC-1): 5.5 µM | IC50 (PC-3M): 3.93 µM | Activity (HepG2 [32]): Active | Activity (HepG2 [33]): 96.39% | Activity (HepG2 [34]): 132.19 | Activity (HepG2 [35]): Active
